Experimental data as given in US20240279176A1, “SUBSTITUTED TRICYCLIC HETEROCYCLIC COMPOUNDS AS METALLO-BETA-LACTAMASE INHIBITORS” (priority 2021, published 2024).
Like-named read-outs stand apart in the source and are kept apart here.

Columns and labels:
[1] = test system: Klebsiella pneumoniae ATCC BAA-2146; experiment: Minimum inhibitory concentration (MIC), broth-microdilution (CLSI); type: cell-based; conditions: ATCCBAA2146, compound alone, K. pneumoniae ATCC BAA-2146, read-out: Intrinsic MIC
Description: (§1) The strain included in the study was Klebsiella pneumoniae ATCC BAA-2146 (Himedia®, India) with presence of New Delhi metallo-β-lactamase (NDM-1) gene. The quality control reference strains Escherichia coli ATCC 25922 and Pseudomonas aeruginosa ATCC 27853 were procured from Himedia®, India.
MIC values were identified through broth-microdilution in sterilized 96-well polystyrene flat-bottom microtitre plates (Cole-Parmer®) according to the guideline of the Clinical and Laboratory Standards Institute (CLSI) (CLSI; Methods for dilution antimicrobial susceptibility tests for bacteria that grow aerobically; Clinical Laboratory Standards Institute, M07-A09, 2012). This method involves the use of BBL™ Cation-adjusted Mueller-Hinton II Broth (CA-MHB; BD) and the strain (Klebsiella pneumoniae ATCC BAA-2146) concentration was adjusted to 5×10^5 CFU/mL. After 16-18 h of incubation at various concentrations of Imipenem, Meropenem (Alfa Aesar), or test compounds at 37° C., MIC was defined as the lowest concentration of antibiotic or test compound with no visible growth.

[2] = test system: Klebsiella pneumoniae ATCC BAA-2146; experiment: Checkerboard synergy assay in combination with Meropenem; type: cell-based; conditions: K. pneumoniae ATCC BAA-2146; for Fold reduction in meropenem MIC in the presence of compounds (μg/mL) 4: compound at 4 μg/mL; for Fold reduction in meropenem MIC in the presence of compounds (μg/mL) 8: compound at 8 μg/mL; for Fold reduction in meropenem MIC in the presence of compounds (μg/mL) 16: compound at 16 μg/mL; for Fold reduction in meropenem MIC in the presence of compounds (μg/mL) 32: compound at 32 μg/mL
Description: as §1
(§2) The fold modulation activity of test compounds, in combination with Imipenem or Meropenem, was checked against Klebsiella pneumoniae ATCC BAA-2146 strain by the broth-microdilution checkerboard synergy assay. The plates contained 5×10^5 CFU/mL bacterial inocula and 2-fold serial dilutions of the antibiotics (128-2 μg/mL) as well as test compounds (32-4 μg/mL) in a total volume of 200 μL of CA-MHB. Dimethyl sulfoxide (DMSO, ≤2.5%) was included as vehicle control. Following 16-18 h of incubation at 37° C., the MICs of antibiotics as well as drug combinations were visually inspected.

NDM-1 = NDM-1 (Klebsiella pneumoniae, UniProt C7C422); experiment: Enzyme activity: IC50 in fluorescence assay with cephalosporin substrate FC5; type: biochemical; conditions: 50 pM NDM-1, 1.5 μM FC5, 10 min pre-incubation
Description: (§3) The Class B beta-lactamases activities were measured in the presence of the test inhibitors in a fluorescence assay against an in-house synthesized fluorescent cephalosporin substrate FC5 (Berkel, et. al. J. Med. Chem. 2013, 56(17), 6945). The enzymes (NDM-1, IMP-1) and the substrate were diluted in 20 mM HEPES, pH 7.4, supplemented with 300 mM NaCl and 10 μM ZnSO4. In the assay, the final concentration of enzyme was 50 pM, and 100 pM for NDM-1, and IMP-1 respectively, and the final concentration of FC5 was 1.5 μM for NDM-1 and 10 μM for IMP-1. The test inhibitors/compounds were dissolved in dimethylsulfoxide (DMSO) and diluted in the assay with assay buffer (20 mM HEPES, pH 7.4, supplemented with 5% DMSO, 300 mM NaCl and 10 μM ZnSO4), resulting in a final concentration range of 0.008 μM to 25 μM. The assays were performed in 96-well microplate (flat bottom, black). The test inhibitors were incubated with the MBL enzyme for 10 min at room temperature, followed by addition the substrate and the fluorescence was recorded immediately (λex 380 nm, λem 460 nm) on a microplate reader. Using the initial velocity data plotted against the inhibitor concentration, the half-maximal inhibitory concentrations were calculated by an IC50 curve-fitting model in GraphPad Prism 9 software.

IMP-1 = IMP-1 (Serratia marcescens, UniProt P52699); experiment: as above; type: biochemical; conditions: 100 pM IMP-1, 10 μM FC5, 10 min pre-incubation
Description: as §3

[3] = test system: Klebsiella pneumoniae ATCC BAA-2146; experiment: Checkerboard synergy assay in combination with Imipenem; type: cell-based; conditions: K. pneumoniae ATCC BAA-2146; for Fold reduction in Imipenem MIC in the presence of compounds (μg/mL) 4: compound at 4 μg/mL; for Fold reduction in Imipenem MIC in the presence of compounds (μg/mL) 8: compound at 8 μg/mL; for Fold reduction in Imipenem MIC in the presence of compounds (μg/mL) 16: compound at 16 μg/mL; for Fold reduction in Imipenem MIC in the presence of compounds (μg/mL) 32: compound at 32 μg/mL
Description: as §1, §2

Chain of IMP-1 (P52699 19-246, looked up, species assumed): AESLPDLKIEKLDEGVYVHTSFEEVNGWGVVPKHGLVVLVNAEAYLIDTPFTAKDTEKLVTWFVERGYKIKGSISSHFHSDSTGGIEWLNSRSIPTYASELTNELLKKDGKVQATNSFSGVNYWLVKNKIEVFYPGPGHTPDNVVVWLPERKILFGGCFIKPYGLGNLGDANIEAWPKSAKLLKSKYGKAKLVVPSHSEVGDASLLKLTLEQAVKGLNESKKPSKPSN
Chain of NDM-1 (C7C422 29-270, looked up): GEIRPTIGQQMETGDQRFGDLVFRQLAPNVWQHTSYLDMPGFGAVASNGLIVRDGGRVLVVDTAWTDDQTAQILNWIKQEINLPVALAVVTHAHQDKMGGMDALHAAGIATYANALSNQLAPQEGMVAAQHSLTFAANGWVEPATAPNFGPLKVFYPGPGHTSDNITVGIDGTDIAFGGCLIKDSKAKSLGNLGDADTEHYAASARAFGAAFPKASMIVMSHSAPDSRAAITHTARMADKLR

| Compound | MIC ([1]; Imipenem series) | MIC ([1]; meropenem series) | Fold reduction in meropenem MIC in the presence of compounds (μg/mL) 4 [2] | Fold reduction in meropenem MIC in the presence of compounds (μg/mL) 8 [2] | Fold reduction in meropenem MIC in the presence of compounds (μg/mL) 16 [2] | Fold reduction in meropenem MIC in the presence of compounds (μg/mL) 32 [2] | IC50 (NDM-1) | IC50 (IMP-1) | Fold reduction in Imipenem MIC in the presence of compounds (μg/mL) 4 [3] | Fold reduction in Imipenem MIC in the presence of compounds (μg/mL) 8 [3] | Fold reduction in Imipenem MIC in the presence of compounds (μg/mL) 16 [3] | Fold reduction in Imipenem MIC in the presence of compounds (μg/mL) 32 [3] |
| --- | --- | --- | --- | --- | --- | --- | --- | --- | --- | --- | --- | --- |
| COc1ccc(Cl)cc1-c1c(C(=O)O)[nH]c2c1CCc1ccccc1-2 [Example 38, 3-(5-Chloro-2-methoxyphenyl)-4,5-dihydro-1H-benzo[g]indole-2-carboxylic Acid] | > 128 µg/mL | > 128 µg/mL | 4 fold | 4 fold | 4 fold | 8 fold | 0.026 µM | 0.026 µM | 4 fold | 4 fold | 8 fold | 8 fold |
| O=C(O)c1[nH]c2c(c1-c1ccccc1F)CCc1ccccc1-2 [Example 41, 3-(2-Fluorophenyl)-4,5-dihydro-1H-benzo[g]indole-2-carboxylic Acid] | > 128 µg/mL | > 128 µg/mL | 4 fold | 4 fold | 4 fold | 8 fold | 0.256 µM | 1.34 µM | 4 fold | 4 fold | 8 fold | 8 fold |
| O=C(O)c1[nH]c2c(c1-c1ccccc1Cl)CCc1ccccc1-2 [Example 44, 3-(2-chlorophenyl)-4,5-dihydro-1H-benzo[g]indole-2-carboxylic Acid] | > 128 µg/mL | > 128 µg/mL | 4 fold | 4 fold | 4 fold | 4 fold | 0.019 µM | 1.1 µM | 4 fold | 4 fold | 4 fold | 4 fold |
| O=C(O)c1[nH]c2c(c1-c1ccc(Cl)cc1Cl)CCc1ccccc1-2 [Example 46, 3-(2,4-dichlorophenyl)-4,5-dihydro-1H-benzo[g]indole-2-carboxylic acid] | > 128 µg/mL | > 128 µg/mL | 4 fold | 4 fold | 8 fold | 16 fold | 0.306 µM | 10.4 µM | 4 fold | 4 fold | 8 fold | 16 fold |

Results, then the molecule that gave them:

| MIC ([1]; Imipenem series) | MIC ([1]; meropenem series) | Fold reduction in meropenem MIC in the presence of compounds (μg/mL) 4 [2] | Fold reduction in meropenem MIC in the presence of compounds (μg/mL) 8 [2] | Fold reduction in meropenem MIC in the presence of compounds (μg/mL) 16 [2] | Fold reduction in meropenem MIC in the presence of compounds (μg/mL) 32 [2] | IC50 (NDM-1) | IC50 (IMP-1) | Fold reduction in Imipenem MIC in the presence of compounds (μg/mL) 4 [3] | Fold reduction in Imipenem MIC in the presence of compounds (μg/mL) 8 [3] | Fold reduction in Imipenem MIC in the presence of compounds (μg/mL) 16 [3] | Fold reduction in Imipenem MIC in the presence of compounds (μg/mL) 32 [3] | Compound |
| --- | --- | --- | --- | --- | --- | --- | --- | --- | --- | --- | --- | --- |
| > 64 µg/mL | > 64 µg/mL | 2 fold | 2 fold | 4 fold | 4 fold | 2.65 µM | 18.3 µM | 2 fold | 2 fold | 2 fold | 4 fold | COc1ccc(-c2c(C(=O)O)[nH]c3c2CCc2ccccc2-3)cc1 [Example 36, 3-(4-Methoxyphenyl)-4,5-dihydro-1H-benzo[g]indole-2-carboxylic Acid] |
| > 64 µg/mL | > 64 µg/mL | 4 fold | 4 fold | 4 fold | 4 fold | 0.342 µM | 3.86 µM | 2 fold | 2 fold | 4 fold | 4 fold | O=C(O)c1[nH]c2c(c1-c1ccc(F)c(F)c1)CCc1ccccc1-2 [Example 37, 3-(3,4-Difluorophenyl)-4,5-dihydro-1H-benzo[g]indole-2-carboxylic Acid] |
| > 64 µg/mL | > 64 µg/mL | 4 fold | 4 fold | 4 fold | 4 fold | 0.591 µM | 72.1 µM | 2 fold | 4 fold | 4 fold | 4 fold | CC(C)(C)c1ccc(-c2c(C(=O)O)[nH]c3c2CCc2ccccc2-3)cc1 [Example 39, 3-(4-(tert-Butyl)phenyl)-4,5-dihydro-1H-benzo[g]indole-2-carboxylic Acid] |
| > 128 µg/mL | > 128 µg/mL | 4 fold | 4 fold | 4 fold | 8 fold | 0.079 µM | 1.15 µM | 4 fold | 4 fold | 8 fold | 8 fold | O=C(O)c1[nH]c2c(c1-c1cccc(F)c1)CCc1ccccc1-2 [Example 42, 3-(3-Fluorophenyl)-4,5-dihydro-1H-benzo[g]indole-2-carboxylic Acid] |
| > 128 µg/mL | > 128 µg/mL | 4 fold | 4 fold | 4 fold | 4 fold | 0.007 µM | 1.48 µM | 4 fold | 4 fold | 4 fold | 8 fold | O=C(O)c1[nH]c2c(c1-c1ccc(Cl)cc1)CCc1ccccc1-2 [Example 43, 3-(4-chlorophenyl)-4,5-dihydro-1H-benzo[g]indole-2-carboxylic Acid] |
